Where a name gives a salt, the structure may show the parent alone.
How the values were obtained:
Assay type in all cases: physicochemical
[1] = Vapor-liquid equilibrium still, separation of 1,1,1-trichloroethane from ethanol
[2] = Vapor-liquid equilibrium still, separation of 1,1,1-trichloroethane from methanol
[3] = Vapor-liquid equilibrium still, separation of 1,1,1-trichloroethane from 2-butanol
[4] = Vapor-liquid equilibrium still, separation of 1,1,1-trichloroethane from t-butanol
[5] = Vapor-liquid equilibrium still, separation of 1,1,1-trichloroethane from n-propanol
[6] = Vapor-liquid equilibrium still, separation of 1,1,1-trichloroethane from isopropanol
[7] = * Brings out Ethanol as Overhead
[8] = 1,1,1-trichloroethane from 2-butanol, vapor-liquid equilibrium still
[9] = 1,1,1-trichloroethane from t-butanol
[10] = 1,1,1-trichloroethane from methanol, vapor-liquid equilibrium still
[11] = 1,1,1-trichloroethane from ethanol
[12] = 1,1,1-trichloroethane from n-propanol, vapor-liquid equilibrium still

CCOC(=O)Cc1ccccc1 [Ethyl phenyl acetate]
Relative Volatility [1, 7]: 1.5

CC(C)COCC(C)O (centres unmarked) [Propylene glycol isobutyl ether]
Relative Volatility [2]: 2.5
Relative Volatility [3, 8]: 2.4
Relative Volatility [4, 9]: 1.4

CC(=O)c1ccccc1 [Acetophenone]
Relative Volatility [2, 10]: 2.3
Relative Volatility [1, 11]: 1.35
Relative Volatility [5]: 1.7
Relative Volatility [3]: 3.0

CC(=O)CC(C)=O [2,4-Pentanedione]
Relative Volatility [2]: 2.7
Relative Volatility [5]: 1.6
Relative Volatility [3]: 1.8

CC(C)CC(=O)CC(C)C [2,6-Dimethyl-4-heptanone]
Relative Volatility [1, 11]: 1.65

CCOCCOCCOCC [Diethylene glycol diethyl ether]
Relative Volatility [2]: 2.7
Relative Volatility [1, 7]: 1.2
Relative Volatility [5]: 1.6
Relative Volatility [3]: 1.6

CCCCC(=O)OCC [Ethyl n-valerate]
Relative Volatility [2]: 2.7
Relative Volatility [1, 11]: 1.6
Relative Volatility [6]: 1.35
Relative Volatility [3]: 1.5

CCC(C)COC(C)=O (centres unmarked) [2-Methyl butyl acetate]
Relative Volatility [6]: 1.35

CC(C)CCO [Isoamyl alcohol]
Relative Volatility [2]: 2.2
Relative Volatility [5]: 3.6
Relative Volatility [3]: 1.6
Relative Volatility [4, 9]: 3.0

CC(=O)Oc1ccccc1 [Phenyl acetate]
Relative Volatility [6]: 1.25

CC(=O)O[C@@H]1C[C@H]2CC[C@]1(C)C2(C)C (racemic) [Isobornyl acetate]
Relative Volatility [2]: 2.5
Relative Volatility [1, 7]: 1.6
Relative Volatility [3]: 1.7

CC(C)CC(=O)CC(C)C [Diisobutyl ketone]
Relative Volatility [2]: 2.7
Relative Volatility [1, 11]: 1.7
Relative Volatility [3]: 1.5

CCCCCCOC(C)=O [Hexyl acetate]
Relative Volatility [6]: 1.35
Relative Volatility [3]: 1.6

O=[N+]([O-])c1ccccc1 [Nitrobenzene]
Relative Volatility [2]: 2.5
Relative Volatility [5]: 1.4
Relative Volatility [3]: 1.6

COCC(C)O (centres unmarked) [1-Methoxy-2-propanol]
Relative Volatility [1, 11]: 2.9

CCCCOCCOCCO [Diethylene glycol butyl ether]
Relative Volatility [2, 10]: 2.1
Relative Volatility [5, 12]: 2.8
Relative Volatility [3]: 2.7
Relative Volatility [4, 9]: 1.5

CCCCCCCO [Heptyl alcohol]
Relative Volatility [2]: 3.6
Relative Volatility [3]: 3.1

CCCCCCC(C)=O [2-Octanone]
Relative Volatility [5]: 1.25

CC(=O)OCC(C)C [Isobutyl acetate]
Relative Volatility [6]: 1.35

CCCCCCCCCC(C)=O [2-Undecanone]
Relative Volatility [1, 11]: 1.4

CCCCCCC(C)O (centres unmarked) [2-Octanol]
Relative Volatility [2, 10]: 2.8
Relative Volatility [3, 8]: 2.6

CCCCOC(C)=O [n-Butyl acetate]
Relative Volatility [1, 7]: 3.5

CCCC(=O)OCC [Ethyl butyrate]
Relative Volatility [1, 7]: 1.2
Relative Volatility [6]: 1.3

O=C1OCCO1 [Ethylene carbonate]
Relative Volatility [2, 10]: 3.3
Relative Volatility [1, 11]: 3.2
Relative Volatility [3, 8]: 2.8
Relative Volatility [4, 9]: 1.3

CCC(CC)CO [2-Ethyl butanol]
Relative Volatility [2]: 1.4
Relative Volatility [3, 8]: 3.3

Tripropylene glycol methyl ether
Relative Volatility [2, 10]: 3.2

CC(C)CCCCCO [Isooctyl alcohol]
Relative Volatility [2]: 2.5
Relative Volatility [1, 11]: 2.1
Relative Volatility [3, 8]: 2.4

CCCCCCO [Hexyl alcohol]
Relative Volatility [5]: 2.5
Relative Volatility ([4]; * Brings out t-Butanol as Overhead): 1.2

CCCCOCCOC(C)=O [Ethylene glycol butyl ether acetate]
Relative Volatility [2, 10]: 2.1
Relative Volatility [1, 11]: 1.2
Relative Volatility [6]: 1.3
Relative Volatility [3]: 1.8

COc1ccccc1 [Anisole]
Relative Volatility [1, 7]: 1.25

CC(C)CCO [3-Methyl-1-butanol]
Relative Volatility [1, 11]: 2.9

CC(=O)CC(C)C [Methyl isobutyl ketone]
Relative Volatility [1, 11]: 1.85
Relative Volatility [5]: 1.5

CCOCCOCCO [Diethylene glycol ethyl ether]
Relative Volatility [2]: 2.9
Relative Volatility [1, 11]: 1.2
Relative Volatility [3, 8]: 2.8
Relative Volatility [4, 9]: 1.4

CCC[N+](=O)[O-] [1-Nitropropane]
Relative Volatility [2, 10]: 2.1
Relative Volatility [5]: 1.3
Relative Volatility [3]: 1.6

CC(=O)OC(C)C [Isopropyl acetate]
Relative Volatility [1, 11]: 1.6

COC(=O)c1ccccc1 [Methyl benzoate]
Relative Volatility [5]: 1.25

CCCCCCOC=O [n-Hexyl formate]
Relative Volatility [2]: 1.7
Relative Volatility [1, 11]: 1.4
Relative Volatility [3]: 1.5

CC(=O)OC(C)CC(C)C (centres unmarked) [4-Methyl pentyl acetate-2]
Relative Volatility [2, 10]: 2.9
Relative Volatility [1, 7]: 1.45
Relative Volatility [3, 8]: 1.7

CCCCCCOCCO [Ethylene glycol hexyl ether]
Relative Volatility [2]: 3.1
Relative Volatility [3]: 2.9

CC(=O)CC(C)C [4-Methyl-2-pentanone]
Relative Volatility [1, 11]: 1.6
Relative Volatility [5]: 1.4

CC(=O)CCC(C)C [Methyl isoamyl ketone]
Relative Volatility [2, 10]: 2.3
Relative Volatility [1, 11]: 2.0
Relative Volatility [3, 8]: 1.6

CCCCCCCCCCO [n-Decanol]
Relative Volatility [2]: 2.5
Relative Volatility [3, 8]: 2.3

CC(=O)OCc1ccccc1 [Benzyl acetate]
Relative Volatility [2]: 2.5
Relative Volatility [1, 11]: 1.2
Relative Volatility [6]: 1.55
Relative Volatility [3, 8]: 1.7

CCOCCOCCOC(C)=O [Diethylene glycol ethyl ether acetate]
Relative Volatility [2, 10]: 2.8
Relative Volatility [3, 8]: 2.1

OCC1CCCO1 (centres unmarked) [Tetrahydro furfuryl alcohol]
Relative Volatility [2, 10]: 3.3
Relative Volatility [1, 11]: 2.3
Relative Volatility [3, 8]: 3.2

CN(C)C=O [Dimethylformamide]
Relative Volatility [2]: 2.8
Relative Volatility [5]: 2.8
Relative Volatility [6]: 1.55
Relative Volatility [3]: 2.8

CC(=O)OCCC(C)C [Isoamyl acetate]
Relative Volatility [1, 11]: 1.25

CC(C)[N+](=O)[O-] [2-Nitropropane]
Relative Volatility [2, 10]: 2.0
Relative Volatility [5]: 1.4
Relative Volatility [3]: 1.6

CC[N+](=O)[O-] [Nitroethane]
Relative Volatility [2]: 2.8
Relative Volatility [6]: 1.3

CCCCC(CC)COC(C)=O (centres unmarked) [2-Ethyl hexyl acetate]
Relative Volatility [2, 10]: 2.0
Relative Volatility [6]: 1.3
Relative Volatility [3]: 1.6

CC(=O)CC(C)(C)O [Diacetone alcohol]
Relative Volatility [1, 11]: 2.7

CC(C)CCCCCCCO [Isodecyl alcohol]
Relative Volatility [2, 10]: 2.3
Relative Volatility [3, 8]: 2.4

1-Methoxy-2-acetoxy propanol
Relative Volatility [2, 10]: 2.3

CCOC(=O)CC(C)C [Ethyl isovalerate]
Relative Volatility [2]: 2.7
Relative Volatility [1, 11]: 1.4
Relative Volatility [6]: 1.6
Relative Volatility [3]: 1.6

CCCOC(C)=O [n-Propyl acetate]
Relative Volatility [1, 11]: 1.85

CCOC(=O)CC(C)=O [Ethyl acetoacetate]
Relative Volatility [2, 10]: 2.8
Relative Volatility [1, 11]: 1.7
Relative Volatility [3]: 1.8

CC(=O)CCC(C)C [5-Methyl-2-hexanone]
Relative Volatility [5, 12]: 1.3

Dipropylene glycol methyl ether
Relative Volatility [2, 10]: 4.3
Relative Volatility [1, 11]: 1.85

CC1=CC(=O)CC(C)(C)C1 [Isophorone]
Relative Volatility [1, 11]: 1.55
Relative Volatility [3, 8]: 2.0
Relative Volatility [4, 9]: 1.4

O=C(OCc1ccccc1)c1ccccc1 [Benzyl benzoate]
Relative Volatility [5, 12]: 1.6

CCOC(=O)c1ccccc1 [Ethyl benzoate]
Relative Volatility [1, 11]: 1.55

N#CCCCCC#N [Adiponitrile]
Relative Volatility [6]: 1.25

COCC(C)OC(C)=O (centres unmarked) [1-Methoxy-2-acetoxy propane]
Relative Volatility [3, 8]: 2.0

OCc1ccccc1 [Benzyl alcohol]
Relative Volatility [3, 8]: 3.5

CC(C)CC(O)CC(C)C [Diisobutyl carbinol]
Relative Volatility [3]: 2.2

CCCCCOC(C)=O [n-Amyl acetate]
Relative Volatility [1, 7]: 1.85

COCC(C)OC(C)=O (centres unmarked) [Propylene glycol methyl ether acetate]
Relative Volatility [2, 10]: 2.3
Relative Volatility [3]: 1.8

CC(C)CC(C)O (centres unmarked) [4-Methyl-2-pentanol]
Relative Volatility [2, 10]: 4.2
Relative Volatility [1, 11]: 2.1
Relative Volatility [3, 8]: 3.2

CC(C)COC(=O)C(C)C [Isobutyl isobutyrate]
Relative Volatility [1, 11]: 3.3
Relative Volatility [6]: 1.3
Relative Volatility [3]: 1.5

COCC(C)OC(C)=O (centres unmarked) [1-Methoxy-2-propanol acetate]
Relative Volatility [2]: 1.7
Relative Volatility [6]: 1.7
Relative Volatility [3, 8]: 4.3

CN1CCCC1=O [1-Methyl-2-pyrrolidinone]
Relative Volatility [2]: 2.7
Relative Volatility [1, 11]: 2.5
Relative Volatility [3, 8]: 3.6

CCCCCOC(C)=O [Amyl acetate]
Relative Volatility [2, 10]: 2.1
Relative Volatility [6]: 1.4
Relative Volatility [3]: 1.5

CCCCC(=O)CC [3-Heptanone]
Relative Volatility [5]: 1.25

CCOCCOC(C)=O [Ethylene glycol ethyl ether acetate]
Relative Volatility [2]: 2.5
Relative Volatility [1, 7]: 1.5

CCOCCC(=O)OCC [Ethyl 3-ethoxy propionate]
Relative Volatility [1, 11]: 1.6

CC(=O)C(C)(C)C [3,3-Dimethyl-2-butanone]
Relative Volatility [1, 11]: 1.65
Relative Volatility [5]: 1.4

CC(O)COc1ccccc1 (centres unmarked) [Propylene glycol phenyl ether]
Relative Volatility [2]: 3.1
Relative Volatility [5, 12]: 3.4
Relative Volatility [6]: 1.6
Relative Volatility [3, 8]: 2.4

CCCCCC(C)=O [2-Heptanone]
Relative Volatility [2, 10]: 3.2
Relative Volatility [1, 11]: 1.3
Relative Volatility [3]: 1.4

Reference: patent publication US5196094A, “Separation of 1,1,1-trichloroethane from the lower alcohols by extractive distillation” (priority 1991, dated 1993)
